Results as given in publication PMC12716008 (Chemistry & Biodiversity, 2025).
Converted amounts (≈) assume the structure as drawn. Where two headings read alike, the source gives them in different places. Starred links: 1 amine or outer side, 2 acyl side, 3 side chain; linkers in the order of their positions; H or OH if unused. Positions of bridges follow the written chain, without caps; N, C: chain ends. Non-standard residues stand in square brackets, D forms with d. Residues, ends and D or L forms follow the SMILES beside them. Chains are numbered I, II in the order given. Actinocin(9to1) = Cc1c2oc3c(C)ccc(C(=O)[*:1])c3nc-2c(C(=O)[*:2])c(N)c1=O; NMeV = CN[C@H](C(=O)O)C(C)C; Sar = CNCC(=O)O

Experiments:
[1] = system: Mycobacterium tuberculosis H37Rv (ATCC 27264); assay: Antimycobacterial activity, microtitre Alamar Blue/Presto Blue assay (MIC); type: cell-based; conditions: 120 h, read-out: M. tb MIC
[2] = system: Mycobacterium smegmatis (MC^2 155); assay: as above; type: cell-based; conditions: Mycolicibacterium smegmatis, read-out: M. smeg MIC
[3] = system: methicillin‐sensitive S. aureus (MSSA) UAMS‐1; assay: Antistaphylococcal activity, broth microdilution (MIC); type: cell-based; conditions: Staphylococcus aureus, read-out: MSSA MIC
[4] = system: methicillin‐resistant S. aureus (MRSA) AH1263 or LAC; assay: as above; type: cell-based, Staphylococcus aureus; conditions: 18 h, read-out: MRSA MIC
[5] = system: MSSA UAMS‐1 biofilm formation; assay: Staphylococcal biofilm inhibition, crystal violet microtitre test (MBIC); type: cell-based; conditions: Staphylococcus aureus, 22 h, read-out: MSSA MBIC
[6] = system: MRSA AH1263 or LAC biofilm formation; assay: as above; type: cell-based; conditions: Staphylococcus aureus, 22 h, read-out: MRSA MBIC
[7] = system: M. smegmatis biofilm formation; assay: Mycobacterial biofilm inhibition, microtitre antibiofilm assay (MBIC); type: cell-based, Mycobacterium smegmatis; conditions: 2–4 days, 37°C, read-out: M. smeg MBIC
[8] = system: African green monkey kidney (Vero) cell line; assay: Cytotoxicity, Presto Blue cell viability; type: cell-based; conditions: 72 h, read-out: Vero IC50 ± SD
Description: (§1) The human monocyte (U937) and African green monkey kidney (Vero) cell lines were used in this study to determine the cytotoxic potential of the quinoline derivatives. The cell lines were purchased from Separation Scientific SA (Pty) Ltd. (Johannesburg, South Africa) and maintained in Roswell Park Memorial Institute (RPMI) 1640 and Eagle's Minimal Essential Medium (EMEM), supplemented with 10% heat‐inactivated foetal bovine serum (FBS), 1% antibiotics (100 U/mL penicillin and 100 µg/mL streptomycin) and 1% antifungal agent (250 µg/mL amphotericin B) as previously described. The cells were cultured at 37°C, 5% CO2 in a humidified incubator to 80% confluency. Detachment was achieved by rinsing the cells with phosphate buffer saline followed by the addition of trypsin–EDTA (0.25% trypsin containing 0.01% EDTA). After 5 min, the reaction was inhibited through the addition of supplemented media.
(§2) Cell viability was assessed through the method described by Lall et al., using Presto Blue as the viability reagent. The cells were seeded in a flat‐bottom 96‐well plate (100 µL) at a concentration of 1.0 × 10^6 cells/mL and allowed to adhere for 24 h. The samples were prepared in DMSO at a stock concentration of 20 mM, serially diluted in complete media and added to the plate at a final concentration range of 0.78–100 µM. Controls included a vehicle control (2% DMSO), an untreated cell control, a 0% control (no cells) and actinomycin D, as the positive control, at a final test concentration range of 3.9 × 10^−4 to 0.05 µg/mL. Cells were incubated for 72 h, followed by the addition of 20 µL of Presto Blue reagent to all the wells and an additional 2 h incubation. Cell viability was measured using a VICTOR Nivo Multimode Microplate Reader (PerkinElmer) at an excitation/emission wavelength of 540/590 nm.
(§3) All results are presented as the mean ± standard deviation (where applicable) of experiments done in triplicate and in two or three independent experiments (as stated in each methods section). Descriptive analysis was used to directly compare and rank the compounds and derivatives based on their activity in the biological assays. Additionally, by comparing the antibiofilm activity to the antibacterial activity and the antibacterial activity to the cytotoxicity, selectivity indices were used to assess the preferential activity of the compounds.

[9] = system: human monocyte (U937) cell line; assay: Cytotoxicity, Presto Blue cell viability; type: cell-based; conditions: U-937, 72 h
Description: as §1, §2, §3

[10] = system: hepatoma (Hep3B); conditions: cited from earlier work
[11] = M. tuberculosis H37Rv, 5 days, 37°C
[12] = MC^2155, M. smegmatis, 24 h, 37°C
[13] = Staphylococcus aureus, MRSA, S. aureus AH1263/LAC
[14] = Chlorocebus sabaeus, Vero, Vero cells
[15] = U937 cells, 72 h, read-out: U937 IC50 ± SD

| Compound | MIC [1, 11] [µM] | MIC [2, 12] [µM] | minimal effective concentration ([7]; Mycolicibacterium smegmatis) [µM] | MIC ([3]; S. aureus UAMS‐1, 18 h) [µM] | MIC [4, 13] [µM] | minimal effective concentration ([6]; S. aureus AH1263/LAC biofilm) [µM] | IC50 [8, 14] [µM] | IC50 [9, 15] [µM] | other results |
| --- | --- | --- | --- | --- | --- | --- | --- | --- | --- |
| Oc1cccc2cccnc12 [HQ‐1, 8‐hydroxyquinoline, reference compound] |  |  |  |  |  |  |  |  | MIC [1]: 1 µM (≈ 0.145 µg/mL); MIC ([2]; MC^2155, 24 h): 3.13 µM (≈ 0.454 µg/mL); MIC ([3]; 18 h): 13.8 µM (≈ 2 µg/mL); MIC ([4]; S. aureus AH1263/LAC): 6.90 µM (≈ 1 µg/mL); MIC ([4]; Staphylococcus aureus, MRSA): 6.9 µM (≈ 1 µg/mL); minimal effective concentration [5]: 13.8 µM; minimal effective concentration [6]: 6.9 µM |
| CCCCCOc1cccc2cccnc12 [QD‐1] | 100 (≈ 21.5 µg/mL) | > 100 | > 100 | 595 (≈ 128 µg/mL) | 595 (≈ 128 µg/mL) | 595 | > 100 | > 100 | minimal effective concentration ([5]; S. aureus UAMS‐1 biofilm): 595 µM |
| O=C(O)c1cn(C2CC2)c2cc(N3CCNCC3)c(F)cc2c1=O [Ciprofloxacin, reference compound] |  | 0.6 (≈ 0.199 µg/mL) | 0.325 |  |  | 1 |  |  | minimal effective concentration ([5]; S. aureus UAMS‐1 biofilm): 2 µM |
| Cc1ccc2c(Cl)cc(Cl)c(OCCC(C)C)c2n1 [QD‐5] | > 100 | > 100 | > 100 |  |  |  | > 100 | > 100 |  |
| CCCCCOc1cccc2ccc(C)nc12 [QD‐7] | 100 (≈ 22.9 µg/mL) | > 100 | > 100 | 1120 (≈ 256 µg/mL) | 1120 (≈ 256 µg/mL) |  | > 100 | > 100 |  |
| CC(C)=CCOc1c(Cl)cc(Cl)c2ccc(C)nc12 [QD‐6] | 100 (≈ 29.6 µg/mL) | > 100 | > 100 |  |  | 256 | > 100 | > 100 |  |
| CCCCCOc1c(Cl)cc(Cl)c2ccc(C)nc12 [QD‐4] | > 100 | > 100 | > 100 |  |  |  | > 100 | > 100 |  |
| O=Cc1ccc2cccc(O)c2n1 [HQ‐4, 8‐hydroxyquinoline‐2‐carbaldehyde, reference compound] |  |  |  |  |  |  |  |  | MIC [1]: 1 µM (≈ 0.173 µg/mL); MIC ([2]; MC^2155, 24 h): > 100 µM; minimal effective concentration [7]: >100 µM; MIC ([3]; 18 h): 370 µM (≈ 64.1 µg/mL); MIC ([4]; Staphylococcus aureus, MRSA): 370 µM (≈ 64.1 µg/mL); minimal effective concentration [5]: 740 µM; minimal effective concentration [6]: 740 µM; IC50 ([8]; Chlorocebus sabaeus, Vero): > 100 µM; MTS50 [10]: 6.25 ± 0.034 µg/mL |
| CC(C)CCOC(=O)c1ccc2cccc(OCCC(C)C)c2n1 [QD‐11, isopentyl 8‐(isopentyloxy)quinoline‐2‐carboxylate] | 100 (≈ 32.9 µg/mL) | > 100 | > 100 | 389 (≈ 128 µg/mL) | 389 (≈ 128 µg/mL) |  | 70.4 ± 3.99 | > 100 |  |
| CC(C)=CCOc1cccc2ccc(C=O)nc12 [QD‐12] | 100 (≈ 24.1 µg/mL) | 100 (≈ 24.1 µg/mL) | 12.5 | 266 (≈ 64.1 µg/mL) | 133 (≈ 32 µg/mL) | 266 | > 100 | > 100 | minimal effective concentration ([5]; S. aureus UAMS‐1 biofilm): 531 µM |
| Cc1onc(-c2ccccc2)c1C(=O)N[C@@H]1C(=O)N2[C@@H]1SC(C)(C)[C@@H]2C(=O)O [Oxacillin, reference compound] |  |  |  | 1 (≈ 0.401 µg/mL) | 64 (≈ 25.7 µg/mL) |  |  |  |  |
| CC(C)=CCOc1cccc2ccc(C)nc12 [QD‐9] | 100 (≈ 22.7 µg/mL) | > 100 | > 100 |  |  |  | > 100 | > 100 |  |
| Cc1c2oc3c(C)ccc(C(=O)N[C@@H]4C(=O)N[C@H](C(C)C)C(=O)N5CCC[C@H]5C(=O)N(C)CC(=O)N(C)[C@@H](C(C)C)C(=O)O[C@@H]4C)c3nc-2c(C(=O)N[C@@H]2C(=O)N[C@H](C(C)C)C(=O)N3CCC[C@H]3C(=O)N(C)CC(=O)N(C)[C@@H](C(C)C)C(=O)O[C@@H]2C)c(N)c1=O [Actinomycin D, reference compound] (I: T[dV]P[Sar][NMeV] / II: T[dV]P[Sar][NMeV]; ester I:1-I:C, II:1-II:C; linker I:N-II:N via Actinocin(9to1)) |  |  |  |  |  |  |  |  | IC50 ([8]; Chlorocebus sabaeus, Vero): 0.02 µM; IC50 ([9]; read-out: U937 IC50 ± SD): 0.002 µM |
| NNC(=O)c1ccncc1 [Isoniazid, reference compound] | 0.3 (≈ 0.0411 µg/mL) |  |  |  |  |  |  |  |  |
| Cc1ccc2cccc(O)c2n1 [HQ‐3, 2‐methyl‐8‐hydroxyquinoline, reference compound] |  |  |  |  |  |  |  |  | MIC [1]: 1 µM (≈ 0.159 µg/mL); MIC ([2]; MC^2155, 24 h): 6.25 µM (≈ 0.995 µg/mL); MIC ([3]; 18 h): 201 µM (≈ 32 µg/mL); MIC ([4]; Staphylococcus aureus, MRSA): 101 µM (≈ 16 µg/mL); minimal effective concentration [5]: 101 µM; minimal effective concentration [6]: 201 µM; IC50 ([8]; Chlorocebus sabaeus, Vero): > 100 µM; IC50 ([9]; read-out: U937 IC50 ± SD, U937 cells, 72 h): > 100 µM |
| CN[C@H](CC(C)C)C(=O)N[C@H]1C(=O)N[C@@H](CC(N)=O)C(=O)N[C@H]2C(=O)N[C@H]3C(=O)N[C@H](C(=O)N[C@H](C(=O)O)c4cc(O)cc(O)c4-c4cc3ccc4O)[C@H](O)c3ccc(c(Cl)c3)Oc3cc2cc(c3O[C@@H]2O[C@H](CO)[C@@H](O)[C@H](O)[C@H]2O[C@H]2C[C@](C)(N)[C@H](O)[C@H](C)O2)Oc2ccc(cc2Cl)[C@H]1O [Vancomycin, reference compound] |  |  |  |  |  |  |  |  | MIC ([3]; 18 h): 1 µM (≈ 1.45 µg/mL); MIC ([4]; Staphylococcus aureus, MRSA): 1 µM (≈ 1.45 µg/mL) |
| Cc1ccc2cccc(OCCC(C)C)c2n1 [QD‐8] | 100 (≈ 22.9 µg/mL) | > 100 | 100 | 559 (≈ 128 µg/mL) |  |  | > 100 | > 100 |  |
| CC(C)CCOc1cccc2cccnc12 [QD‐2] | > 100 | > 100 | > 100 |  | 1190 (≈ 256 µg/mL) | 1190 | > 100 | > 100 | minimal effective concentration ([5]; S. aureus UAMS‐1 biofilm): 1190 µM |
| Cc1ccc2c(Cl)cc(Cl)c(O)c2n1 [HQ‐2, 5,7‐dichloro‐8‐hydroxy‐2‐methylquinoline, reference compound] | 0.1 (≈ 0.0228 µg/mL) | 1.56 (≈ 0.356 µg/mL) | 3.13 | 2.2 (≈ 0.502 µg/mL) | 1.1 (≈ 0.251 µg/mL) | 35.2 | < 100 |  | minimal effective concentration ([5]; S. aureus UAMS‐1 biofilm): 17.6 µM; IC50 ([8]; Vero cells): 82.8 ± 7.09 µM |
| CCCCCOC(=O)c1ccc2cccc(OCCCCC)c2n1 [QD‐10, pentyl 8‐(pentyloxy)quinoline‐2‐carboxylate] | 100 (≈ 32.9 µg/mL) | > 100 | > 100 | 389 (≈ 128 µg/mL) | 389 (≈ 128 µg/mL) |  | 84.8 ± 3.42 | 69.48 ± 0.16 |  |
| CC(C)=CCOc1cccc2cccnc12 [QD‐3] | 100 (≈ 21.3 µg/mL) | > 100 | 100 | 300 (≈ 64.1 µg/mL) | 300 (≈ 64.1 µg/mL) | 601 | > 100 | 83.83 ± 0.8 | minimal effective concentration ([5]; S. aureus UAMS‐1 biofilm): 601 µM |
